Reference: US20120142750A1, “INDOLEAMINE 2,3-DIOXYGENASE PATHWAYS IN THE GENERATION OF REGULATORY T CELLS” (Regents of the University of Minnesota, priority 2005, published 2012)
“Also recorded” adds a separate entry of the source.

Legend:
[1] = test system: primed CD4+ T cells / naive CD4+ T cells; experiment: MLR assays of function of CpG-PDC or CpG-B cell primed CD4+ T cells; type: cell-based, human
Protocol: In vitro priming of naive CD4+ T cells. CD4+CD45RA+ naive T cells were primed with allogeneic PDCs or irradiated B cells (30 Gy) at a 10:1 ratio (e.g., 2×10^6 naive CD4+ T cells plus 2×105 PDCs per well in 24-well plates) with ODN 2216 or ODN 2006 present in RPMI 1640 medium supplemented with 10% human AB serum. 1 MT and/or KYN were added into CpG ODN-PDC or CpG ODN-B cell mediated naive CD4+ T cell priming cultures as indicated. In some experiments, blocking Abs against CD80, CD86, HLA-DR or the control IgG Ab (R&D Systems, Minneapolis, Minn.) were added to CpG-PDC-mediated naive CD4+ T cell priming cultures at a final Ab concentration ranging from 0.1 to 10 μg/ml. After 7 days, primed T cells in cultures were harvested, assessed for their surface phenotype, intracellular Foxp3 expression, and their function in MLR assays.
MLR assays. […] In all T cell proliferation assays, plates were incubated at 37° C. for 5 days and pulsed with 1 μCi of 3H-thymidine per well for the last 18 hours before harvesting. All determinations were carried out in triplicate and 3H-thymidine incorporation was determined.

[2] = test system: BM3 T cells; experiment: Ex vivo T cell suppression assays with sorted Tregs from treated mice; type: in vivo, mouse
Protocol: CpG Oligonucleotides. CpG-ODNs (CpG no. 1826, […]; (SEQ ID NO:4) and sequence matched non-CpG-B no. 2138, […] (SEQ ID NO:5)) with fully phosphorothioate backbones were purchased from Coley Pharmaceuticals. Mice were injected with relatively high doses of ODNs (50 μg/mouse, i/v) as described (Mellor et al. J Immunol 2005; 175:5601-5605).
1-methyl-[D]-tryptophan (1 mT). 1 mT (catalog number 45, 248-3, Sigma) was prepared as a 20 mM stock solution in 0.1 N NaOH, adjusted to pH 7.4, and stored at −20° C. protected from light. For in vitro use, 1 mT was added to MLRs to a final concentration of 100 μM. For in vivo treatment, slow-release polymer pellets (*5 mg/day) containing 1 mT or vehicle alone were inserted under the dorsal skin as described (Munn et al. Science 1998; 281:1191-1193) 24 hours before CpG treatment.
Preparative flow cytometry to sort CD4+ T cells subsets. CD4+ T cell subsets were purified using a Mo-Flo cytometer as described (Mellor et al. J Immunol 2005; 175:5601-5605; Munn et al. Immunity 2005; 22:1-10).
Ex vivo T cell suppression assays. Suppression assays were performed by adding sorted CD4+ cells to T cell proliferation assays (72 hour thymidine incorporation assays) containing responder H-2K^b-specific splenocytes from BM3 TCR transgenic mice (nylon-wool enriched) and CD11c+ splenocytes (AutoMacs enriched) from CBK (H-2K^b transgenic CBA) mice prepared as described (Mellor et al. J Immunol 2005; 175:5601-5605).

[3] = test system: PDCs; experiment: Surface expression of CD80, CD86, HLA-DR on PDCs (flow cytometry); type: cell-based, human; details: 1MT added to priming MLRs with CpG ODN
Excerpt: PDC, B, and T cell isolation. Human PBMC were isolated under IRE-approved protocols from apheresis products of healthy blood donors (Memorial Blood Centers of Minnesota, Minneapolis, Minn.) by Ficoll-Paque density gradient centrifugation. Plasmascytoid dendritic cells (PDCs) were isolated from PBMC using BDCA-4 cell isolation kits and the MACS system, followed by staining and sorting to collect purified Lin-CD11c-CD123+ PDCs, as reported previously (Moseman et al., J Immunol 2004; 173:4433-4442). CD4+CD45RA+ naïve T cells were isolated from PBMC using CD4 T cell isolation kits followed by positive selection with CD45RA microbeads. The purity of naïve CD4+ T cells was greater than 95% for CD4+CD45RA+ expression and less than 0.5% for CD25+ expression. B cells were isolated from PBMC with CD19 microbeads and the MACS system to greater than 98% purity of CD19+ B cells. All cell isolations kits and microbeads were from Miltenyi Biotec (Bergisch Gladbach, Germany).
Flow Cytometry. Fluorescent antibodies (Abs) against human CD3, CD4, CD11c, CD19, CD25, CD40, CD45, CD45RA, CD45RO, CD80, CD86, CD123, HLA-DR, lineage (Lin) markers, and isotype control Abs were from BD Biosciences (San Diego, Calif.). […] Mean fluorescence intensity (MFI) and positive cell percentages of stained cells were determined by flow cytometry.

[4] = test system: CHOP in Tregs; experiment: Intracellular CHOP expression in Tregs and OT-I cells cultured with TDLN pDCs; type: cell-based, mouse; details: 48 hours; with OVA antigen; no bystander cells
Excerpt: Flow cytometry. Details of the staining protocols are given below. For CHOP and Foxp3 staining, assays were set up without the A1 bystander cells, so that the Tregs were the only CD4^+ cells in the system and thus could be unambiguously followed throughout the assay.
FAGS staining. Antibodies were from BD-Pharmingen unless otherwise noted. Anti-mouse CD25-APC conjugate (clone PC61, cat. #17-0251-81) was from eBioscience: This conjugate gave brighter signal and better separation of CD25^+ cells than other conjugates from other suppliers. For intracellular staining of CHOP, live cells were first blocked for 10 minutes with mouse Fc Block (BD Pharmingen) in 10% fetal calf serum medium, stained with anti-CD4-FITC for 30 minutes on ice, washed with PBS, then fixed and permeablized for 20 minutes in 250 ul Cytoperm/Cytofix solution (BD Pharmingen) on ice. All subsequent staining and wash steps were in BD Permwash solution. Fixed cells were stained with 1:100 dilution of monoclonal anti-gadd153/CHOP (sc-7351, Santa Cruz Biotechnology), washed, and stained with secondary monoclonal rat anti-mouse-IgG1-PE (#550083, BD Biosciences). […] For CHOP staining, assays were set up without A1 bystander cells, so that Tregs were the only CD4^+ cells, and thus could be unambiguously followed throughout the assay. […]

SMILES: Cn1cc(C[C@@H](N)C(=O)O)c2ccccc21 [Inhibitor 1MT, 1-methyl-D-tryptophan]
- T cell responses after priming with CpG ODN-activated B cells (control for nonspecific effects) ([1]; 1MT added to priming MLRs with IDO-negative B cells): no nonspecific effect
- anergy/hyporesponsiveness of primed CD4+ T cells to subsequent alloantigen stimulation ([1]; 1MT present during priming): prevented CD4+ T cells from becoming anergic/hyporesponsive
- suppressor/regulatory activity of PDC-primed T cells on proliferation of naive CD4+ T cells in MLR ([1]; 1MT present during priming): blocked the generation of suppressor/regulatory activity; also recorded: markedly reduced
- reversal of Treg-mediated suppression by IDO inhibitor added to parallel cultures ([2]; 100 μM in culture, Tregs from CpG-treated mice): did not reverse suppression
- CpG-mediated stimulation of Treg suppressive functions, IDO inhibitor given to Treg donor mice ([2]; slow-release pellets 24 hours before CpG, IDO-WT mice): prevented CpG-mediated stimulation of Treg suppressive functions
- expression of cell surface maturation markers by PDCs (CD80, CD86, HLA-DR) [3]: insignificant effects
- CHOP induction in Tregs (and OT-I) [4]: abrogated
